The record followed here is patent publication US20110009435A1, “HETERO BICYCLIC CARBOXAMIDE DERIVATIVES AND THEIR PHARMACEUTICAL USE AND COMPOSITIONS” (Pfizer, Inc., priority 2007, published 2011).

Assay [1] has as its target T1, catalytic domain of human recombinant MMP-3 (Homo sapiens, UniProt P08254).
T1 construct: made in house
Nature of the assay: In vitro MMP inhibition assay, MMP-3 catalytic domain (fluorogenic peptide substrate cleavage, Ki). It counts as biochemical. To be noted: human MMP-3, catalytic domain (CD); read-out: hMMP Ki 03/CD. On the procedure: (§1) Matrix Metalloproteinase inhibitor compounds were analyzed in in vitro MMP Inhibition assays to determine their ability to inhibit the MMP cleavage of peptide substrates. Inhibition constants (Ki) were calculated from the assayed compound-MMP interactions.
(§2) Human recombinant MMP-1, MMP-2, MMP-3, MMP-7, MMP-9, MMP-12, MMP-13, MMP-14 and MMP-15 were used in these assays. The enzymes are prepared following known laboratory procedures. Protocols for the preparation and use of these enzymes are available in the scientific literature. See, e.g., Enzyme Nomenclature (Academic Press, San Diego, Calif., 1992) and the citations therein. See also Frije et al., J. Biol. Chem., 26(24), 16766-73 (1994).
The catalytic domain MMP-3 cDNA may be used to express the catalytic domain enzyme in E. coli inclusion bodies. Then the enzyme is solubilized in urea, purified on a preparative […] reverse phase HPLC column, and refolded in the presence of zinc acetate and purified for use.
The fluorogenic, methoxycoumarin-containing polypeptide substrate Mca-Arg-Pro-Lys-Pro-Val-Glu-Nva-Trp-Arg-Lys(Dnp)-NH2 (Bachem catalog number M-2110) was used as the MMP substrate in the MMP inhibition assays for catalytic domain of human recombinant MMP-3 (which refers to the catalytic domain of stromelysin). Here, “MCA” is 7-methoxycoumarin-4-yl acetyl and “Dpa” is 3-(2,4-dinitrophenyl)-L-2,3-di-aminopropionyl group. In the absence of MMP inhibitory activity, the substrate is cleaved at the Gly-Leu peptide bond. The cleavage separates the highly fluorogenic peptide from the 2,4-dinitrophenyl quencher, resulting in an increase of fluorescent intensity.
For the human MMP-3 assay, dilutions of the inhibitors (or salts thereof) were prepared in 100% DMSO. The stock solutions were diluted in Buffer B (50 mM N-morpholinoethane sulfonate (“MES”), 100 mM NaCl, 10 mM CaCl2, 0.005% polyoxyethylene 23 lauryl ether, pH 6.0)) to obtain solutions with different compound concentrations, i.e., assay solutions with different concentrations of the assayed MMP inhibitory compound in 1% DMSO. The experiment controls contained the same amount of Buffer B/DMSO as the assayed sample, but contained no inhibitor.
(§3) To determine Ki, the inhibitor samples are incubated at room temperature for 1 hr in the presence of enzyme and then 4 μM of appropriate MMP substrate was added, and samples were analyzed on a Tecan SpectraFlour Plus plate reader. The excitation wavelength is 330 nm, and the emission (fluorescence) wavelength is 420 nm. In the absence of MMP inhibitory activity, the substrate is cleaved at the Gly-Leu bond resulting in an increase of relative fluorescence. Inhibition is observed as a reduced rate of increase in relative fluorescence.
The inhibitors are analyzed using a single low enzyme concentration with a single substrate concentration fixed at or below the Km. This protocol is a modification of method by Knight et al., FEBS Lett., 296(3), 263-266 (1992). Apparent inhibitory constants are determined by non-linear regression of reaction velocity as a function of inhibitor and enzyme concentration using Morrison's equation, as described by Kuzmic, Anal. Biochem. 286, 45-50 (2000). Modifications were made in the non-linear regression method to allow a common control reaction rate and effective enzyme concentration to be shared between all dose-response relationships on a given assay plate. Since the substrate concentration was chosen to be at or below the Km, the apparent Ki's from this analysis were reported as Ki's without correction for the influence of substrate.

Another assay deals with T2, Human recombinant MMP-13 (Homo sapiens, UniProt P45452).
T2 construct: made in house; host or cells: baculovirus expression (insect cells)
Nature of the assay: In vitro MMP inhibition assay, MMP-13 (fluorogenic peptide substrate cleavage, Ki). It counts as biochemical. Particulars: human MMP-13, full length (FL); read-out: hMMP Ki 13/FL. On the procedure: as §1, §2
The MMP-13 may be obtained as a proenzyme from a full-length cDNA clone using baculovirus expression, as described by V. A. Luckow, “Insect Cell Expression Technology,” Protein Engineering: Principles and Practice, pp. 183-218 (edited by J. L. Cleland et al., Wiley-Liss, Inc., 1996). The expressed proenzyme was first purified over a heparin agarose column, and then over a chelating zinc chloride column. Further details on baculovirus expression systems may be found in, for example, Luckow et al., J. Virol., 67, 4566-79 (1993). See also O'Reilly et al, Baculovirus Expression Vectors: A Laboratory Manual (W. H. Freeman and Co., New York, N.Y., 1992). See also King et al., The Baculovirus Expression System: A Laboratory Guide (Chapman & Hall, London, England, 1992).
All full length MMPs were activated using 4-aminophenylmercuric acetate (“APMA”, Sigma Chemical, St. Louis, Mo.) or trypsin. MMP-9 also was activated using human recombinant MMP-3 following standard cloning and purification techniques.
The fluorogenic, methoxycoumarin-containing polypeptide substrate MCA-ArgProLeuGlyLeuDpaAlaArgGluArgNH2 was used as the MMP substrate in the MMP inhibition assays for human recombinant MMP-1, MMP-2, MMP-7, MMP-9, MMP-12, MMP-13, MMP-14 and MMP-15. Here, “MCA” is 7-methoxycoumarin-4-yl acetyl and “Dpa” is 3-(2,4-dinitrophenyl)-L-2,3-di-aminopropionyl group. In the absence of MMP inhibitory activity, the substrate is cleaved at the Gly-Leu peptide bond. The cleavage separates the highly fluorogenic peptide from the 2,4-dinitrophenyl quencher, resulting in an increase of fluorescent intensity.
For the human MMP-1, MMP-2, MMP-7, MMP-9, MMP-12, MMP-13, MMP-14 and MMP-15 assays, dilutions of the inhibitors (or salts thereof) were prepared in 100% dimethyl sulfoxide (DMSO). The stock solutions were diluted in Buffer A (100 mM Tris-HCl, 100 mM NaCl, 10 mM CaCl2, 0.005% polyoxyethylene 23 lauryl ether, pH 7.5) to obtain solutions with different compound concentrations, i.e., assay solutions with different concentrations of the assayed MMP inhibitory compound in 1% DMSO. The experiment controls contained the same amount of Buffer A/DMSO as the assayed sample, but contained no inhibitor.
as §3
The inhibitors are analyzed using a single low enzyme concentration with a single substrate concentration fixed at or below the Km. This protocol is a modification of method by Knight et al., FEBS Lett., 296(3), 263-266 (1992). Apparent inhibitory constants are determined by non-linear regression of reaction velocity as a function of inhibitor and enzyme concentration using Morrison's equation, as described by Kuzmic, Anal. Biochem. 286, 45-50 (2000). […]

Counter-ions that a name gives are not always drawn.

T1 sequence (P08254 100-272 limits assumed): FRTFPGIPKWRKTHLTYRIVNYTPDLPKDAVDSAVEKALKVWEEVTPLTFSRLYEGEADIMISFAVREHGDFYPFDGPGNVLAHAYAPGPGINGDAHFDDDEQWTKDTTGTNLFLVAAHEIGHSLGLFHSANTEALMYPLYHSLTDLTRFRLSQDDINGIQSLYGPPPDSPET

Take `COc1cccc(CNC(=O)c2nc3scc(COCCC4CCN(S(C)(=O)=O)CC4)c3c(=O)[nH]2)c1` [Example 27, N-(3-methoxybenzyl)-5-({2-[1-(methylsulfonyl)piperidin-4-yl]ethoxy}methyl)-4-oxo-3,4-dihydrothieno[2,3-d]pyrimidine-2-carboxamide]: the Ki was 0.779 µM in assay [1] and 0.00178 µM on Human recombinant MMP-13.

As to `COc1cccc(CNC(=O)c2nc3ccc(F)c(OC[C@H]4CC[C@H](CO)CC4)c3c(=O)[nH]2)c1` [Example 29, 6-fluoro-5-{[trans-4-(hydroxymethyl)cyclohexyl]methoxy}-N-(3-methoxybenzyl)-4-oxo-3,4-dihydroquinazoline-2-carboxamide], the Ki in assay [1] came to 1.6 µM; on Human recombinant MMP-13 it was 0.000374 µM.

`COc1cccc(CNC(=O)c2nc3scc(COC[C@H]4CC[C@H](CNS(C)(=O)=O)CC4)c3c(=O)[nH]2)c1` [Example 25, N-(3-methoxybenzyl)-5-[({trans-4-[(methylsulfonyl)aminomethyl]cyclohexyl}methoxy)methyl]-4-oxo-3,4-dihydrothieno[2,3-d]pyrimidine-2-carboxamide]: the Ki in assay [1] is 0.512 µM; on Human recombinant MMP-13 it was 0.000566 µM.

With `COc1cccc(CNC(=O)c2nc3scc(COCCC4CCNCC4)c3c(=O)[nH]2)c1` [Example 26, N-(3-methoxybenzyl)-4-oxo-5-[(2-piperidin-4-ylethoxy)methyl]-3,4-dihydrothieno[2,3-d]pyrimidine-2-carboxamide hydrochloride], the Ki on Human recombinant MMP-13 was found to be 0.00928 µM.

Turning to `COc1cccc(CNC(=O)c2nc3scc(COC[C@H]4CC[C@H](NC(=O)CO)CC4)c3c(=O)[nH]2)c1` [Example 21, N-(3-Methoxybenzyl)-5-((((trans-1,4)-4-(2-hydroxyacetamido)cyclohexyl)methoxy)methyl)-4-oxo-3,4-dihydrothieno[2,3-d]pyrimidine-2-carboxamide], the Ki was determined as 0.672 µM in assay [1] and 0.00125 µM on Human recombinant MMP-13.

Consider `COc1cccc(CNC(=O)c2nc3scc(COC[C@H]4CC[C@H](C#N)CC4)c3c(=O)[nH]2)c1` [Example 6, N-(3-Methoxybenzyl)-5-(((trans-4-cyanocyclohexyl)methoxy)methyl)-4-oxo-3,4-dihydrothieno[2,3-d]pyrimidine-2-carboxamide], for which the Ki in assay [1] came out at 0.468 µM; on Human recombinant MMP-13, 0.000747 µM.

`COc1cccc(CNC(=O)c2nc3scc(COC[C@H]4CC[C@H](C(=O)O)CC4)c3c(=O)[nH]2)c1` [Example 5, Trans-4-(((2-((3-Methoxybenzyl)carbamoyl)-4-oxo-3,4-dihydrothieno[2,3-d]pyrimidin-5-yl)methoxy)methyl)cyclohexanecarboxylic acid]: the values for the Ki (in assay [1]; on Human recombinant MMP-13) were 0.389 µM and 0.000221 µM, respectively.

As to `COc1cccc(CNC(=O)c2nc3ccc(F)c(OC[C@@H]4CO[C@@H](CN)CO4)c3c(=O)[nH]2)c1` (relative stereo) [Example 36, 5-{[(trans 2,5)-5-(aminomethyl)-1,4-dioxan-2-yl]methoxy}-6-fluoro-N-(3-methoxybenzyl)-4-oxo-3,4-dihydroquinazoline-2-carboxamide], the Ki at Human recombinant MMP-13 was 0.0199 µM.

In the case of `COc1cccc(CNC(=O)c2nc3scc(COC[C@H]4CC[C@H](NS(C)(=O)=O)CC4)c3c(=O)[nH]2)c1` [Example 16, N-(3-Methoxybenzyl)-5-[({trans-4-[(methylsulfonyl)amino]cyclohexyl}methoxy)methyl]-4-oxo-3,4-dihydrothieno[2,3-d]pyrimidine-2-carboxamide], the Ki in assay [1] came to 0.533 µM; at Human recombinant MMP-13, 0.00041 µM.

As to `COc1cccc(CNC(=O)c2nc3ccc(F)c(OCCC4CCN(C(C)=O)CC4)c3c(=O)[nH]2)c1` [Example 32, 5-[2-(1-acetylpiperidin-4-yl)ethoxy]-6-fluoro-N-(3-methoxybenzyl)-4-oxo-3,4-dihydroquinazoline-2-carboxamide], the Ki in assay [1] was 1.95 µM; at Human recombinant MMP-13, 0.000184 µM.

With `COc1cc(CNC(=O)c2nc3scc(COC[C@@H]4CO[C@@H](C(=O)O)CO4)c3c(=O)[nH]2)ccc1F` (relative stereo) [Example 12, Trans-5-(((2-((4-Fluoro-3-methoxybenzyl)carbamoyl)-4-oxo-3,4-dihydrothieno[2,3-d]pyrimidin-5-yl)methoxy)methyl)-1,4-dioxane-2-carboxylic acid], the Ki came to 0.668 µM in assay [1] and 0.00162 µM at Human recombinant MMP-13.

In the case of `COc1cccc(CNC(=O)c2nc3ccc(F)c(OC[C@H]4CO[C@H](CO)CO4)c3c(=O)[nH]2)c1` (relative stereo) [Example 3, 6-Fluoro-5-{[(trans-2,5)-5-(hydroxymethyl)-1,4-dioxan-2-yl]methoxy}-N-(3-methoxybenzyl)-4-oxo-3,4-dihydroquinazoline-2-carboxamide], the Ki was determined as 8.58 µM in assay [1] and 0.0164 µM at Human recombinant MMP-13.

On to `COc1cccc(CNC(=O)c2nc3scc(COCCC4CCN(C(C)=O)CC4)c3c(=O)[nH]2)c1` [Example 28, 5-([2-(1-Acetylpiperidin-4-yl)ethoxy]methyl)-N-(3-methoxybenzyl)-4-oxo-3,4-dihydrothieno[2,3-d]pyrimidine-2-carboxamide], for which the results for the Ki (in assay [1]; at Human recombinant MMP-13) were 0.787 µM and 0.00313 µM, respectively.

As for `COc1cccc(CNC(=O)c2nc3scc(COC[C@H]4CC[C@H](N)CC4)c3c(=O)[nH]2)c1` [Example 1, 5-({[trans-4-Aminocyclohexyl]methoxy}methyl)-N-(3-methoxybenzyl)-4-oxo-3,4-dihydrothieno[2,3-d]pyrimidine-2-carboxamide], the Ki on Human recombinant MMP-13 was determined as 0.013 µM.
